In patent publication US5789542A, “Amphipathic peptides” (Board of Supervisors of Louisiana State University and …, priority 1997, dated 1998):
Where a SMILES comes first, the peptide text is derived from it.

Columns and labels:
Type in all cases: cell-based
mammalian cell = assay: Mammalian cell permeation to an exterior fluorescent dye; settings: ratio to antibacterial concentration
[1] = test system: Staphylococcus aureus ATCC 25723; assay: Minimum inhibitory concentration by broth microdilution, S. aureus; settings: 5×10^4 cells, incubated overnight
Method: (§1) Minimum inhibitory concentrations of several of the peptides were measured against E. coli ATCC 25922, Pseudomonas aeruginosa ATCC 27853, and Staphylococcus aureus ATCC 25723. Minimum inhibitory concentrations were obtained by the broth microdilution method. Peptide solutions were prepared over a range of concentrations from 2 μg/mL to 256 μg/mL. 5×10^4 cells were added to the peptide solutions in sterile wells and incubated overnight. Wells in which the organisms grew became turbid. The minimum inhibitory concentration was the lowest concentration that inhibited growth of the organism.
(§2) P. aeruginosa and E. coli are Gram-negative bacteria, while S. aureus is a Gram-positive bacterium. 3T3 cells are healthy Swiss mouse fibroblast cells, and 3T12 cells are transformed, immortalized mouse fibroblast cells. Thus the novel peptides (at the proper concentrations) have activity against both Gram-negative and Gram-positive bacteria, while not showing activity against mammalian cells. This combination of properties is itself rather unusual in a lytic peptide.

E. coli ATCC 25922 = assay: Minimum inhibitory concentration by broth microdilution, E. coli; settings: 5×10^4 cells, incubated overnight
Method: as §1, §2

[2] = test system: Pseudomonas aeruginosa ATCC 27853; assay: Minimum inhibitory concentration by broth microdilution, P. aeruginosa; settings: 5×10^4 cells, incubated overnight
Method: as §1, §2

murine cell line 3T12 = assay: Sublethal concentration, Tryptan blue staining, 3T12 cells; settings: transformed, immortalized mouse fibroblast cells, thirty minutes at 37° C., highest concentration with at least one nucleus not stained
Method: (§3) Also shown in Table 1 are sublethal concentrations for some of the peptides against the murine cell lines 3T3 and 3T12. Dilutions of peptide were prepared over a range of concentrations. Equal volumes of peptide solution and 250-750 murine cells were mixed together. The cells were incubated for thirty minutes at 37° C. 50 μL of Tryptan blue stain were then added to each well. Under light microscopy, killed cells could be visualized by the fact that their nuclei were stained. The sublethal dose was the highest concentration for which at least one cell nucleus was not stained. (Blank entries in Table 1 correspond to assays that had not been completed as of the date this application is being filed. Values for those entries will be determined in future assays performed in the same manner.)
as §2

murine cell line 3T3 = assay: Sublethal concentration, Tryptan blue staining, 3T3 cells; settings: healthy Swiss mouse fibroblast cells, thirty minutes at 37° C., highest concentration with at least one nucleus not stained
Method: as §3, §2

Compound	Concentration at which mammalian cell permeation to an exterior fluorescent dye begins, relative to concentrations that effectively inhibited bacterial growth (mammalian cell)	Minimum Inhibitory Concentration, S. aureus [1]	Minimum Inhibitory Concentration, E. coli (E. coli ATCC 25922)	Minimum Inhibitory Concentration, P. aeruginosa [2]	Sublethal Concentration, 3T12 (murine cell line 3T12)	Sublethal Concentration, 3T3 (murine cell line 3T3)
COC(=O)[C@H](C)NC(=O)[C@H](CC(C)C)NC(=O)[C@H](CCCCN)NC(=O)[C@H](CCCCN)NC(=O)[C@H](C)NC(=O)[C@H](CC(C)C)NC(=O)[C@H](CCCCN)NC(=O)[C@H](C)NC(=O)[C@H](CC(C)C)NC(=O)[C@H](CCCCN)NC(=O)[C@H](CCCCN)NC(=O)[C@H](C)NC(=O)[C@H](CC(C)C)NC(=O)[C@@H](N)CCCCN [Peptide 14-mer, (KLAKKLA)2 -OCH3] (H-KLAKKLAKLAKKLA-OMe)	about 50 times	–	–	–	–	–
(KLAKLAK)2 (KLAKLAKKLAKLAK)	–	5.8 µM	5.8 µM	5.8 µM	–	–
(KLAKKLA)4 (KLAKKLAKLAKKLAKLAKKLAKLAKKLA)	–	9.0 µM	9.0 µM	9.0 µM	52 µM	13 µM
magainin 2 (KLGKKLGKLGKKLGKLGKKLG) [naturally occurring lytic peptide used for comparison, reference compound]	–	1.3 µM	1.3 µM	0.65 µM	–	–
(KLAKLAK)	–	> 95 µM	> 95 µM	> 95 µM	–	–
CC(C)C[C@H](NC(=O)[C@H](CCCCN)NC(=O)[C@H](C)NC(=O)[C@H](CC(C)C)NC(=O)[C@H](CCCCN)NC(=O)[C@H](CCCCN)NC(=O)[C@H](C)NC(=O)[C@H](CC(C)C)NC(=O)[C@H](CCCCN)NC(=O)[C@H](C)NC(=O)[C@H](CC(C)C)NC(=O)[C@H](CCCCN)NC(=O)[C@H](CCCCN)NC(=O)[C@H](C)NC(=O)[C@H](CC(C)C)NC(=O)[C@H](CCCCN)NC(=O)[C@H](C)NC(=O)[C@H](CC(C)C)NC(=O)[C@@H](N)CCCCN)C(=O)N[C@@H](C)C(=O)N[C@@H](CCCCN)C(N)=O [(KLAKLAK)3]	–	3.7 µM	3.7 µM	3.7 µM	–	–
CC[C@H](C)[C@H](NC(=O)CN)C(=O)NCC(=O)N[C@@H](C)C(=O)N[C@H](C(=O)N[C@@H](CC(C)C)C(=O)N[C@@H](CCCCN)C(=O)N[C@H](C(=O)N[C@@H](CC(C)C)C(=O)N[C@H](C(=O)N[C@H](C(=O)NCC(=O)N[C@@H](CC(C)C)C(=O)N1CCC[C@H]1C(=O)N[C@@H](C)C(=O)N[C@@H](CC(C)C)C(=O)N[C@H](C(=O)N[C@@H](CO)C(=O)N[C@@H](Cc1c[nH]c2ccccc12)C(=O)N[C@H](C(=O)N[C@@H](CCCCN)C(=O)N[C@@H](CCCNC(=N)N)C(=O)N[C@@H](CCCCN)C(=O)N[C@@H](CCCNC(=N)N)C(=O)N[C@@H](CCC(N)=O)C(=O)N[C@@H](CCC(N)=O)C(N)=O)[C@@H](C)CC)[C@@H](C)CC)[C@@H](C)O)[C@@H](C)O)C(C)C)C(C)C [melittin, reference compound]	–	0.56 µM	0.56 µM	2.3 µM	0.78 µM	0.78 µM
(KLGKKLG)3 (KLGKKLGKLGKKLGKLGKKLG)	–	3.4 µM	3.4 µM	3.4 µM	565 µM	565 µM
(KALKALK)3	–	7.8 µM	3.9 µM	3.9 µM	–	–
cecropin B (KWKVFKKIEKMGRNIRNGIVKAGPAIAVLGEAKAL; UniProt P01508 27-61, looked up) [naturally occurring lytic peptide used for comparison, reference compound]	–	1.7 µM	0.20 µM	0.20 µM	–	–
(KLAKKLA)3 (KLAKKLAKLAKKLAKLAKKLA)	–	4.2 µM	4.2 µM	4.2 µM	17 µM	9 µM
(KLAKLAK)4 (KLAKLAKKLAKLAKKLAKLAKKLAKLAK)	–	9.4 µM	9.4 µM	9.4 µM	–	–
COC(=O)[C@H](C)NC(=O)[C@H](CC(C)C)NC(=O)[C@H](CCCCN)NC(=O)[C@H](CCCCN)NC(=O)[C@H](C)NC(=O)[C@H](CC(C)C)NC(=O)[C@H](CCCCN)NC(=O)[C@H](C)NC(=O)[C@H](CC(C)C)NC(=O)[C@H](CCCCN)NC(=O)[C@H](CCCCN)NC(=O)[C@H](C)NC(=O)[C@H](CC(C)C)NC(=O)[C@@H](N)CCCCN [(KLAKKLA)2] (H-KLAKKLAKLAKKLA-OMe)	–	–	–	–	788 µM	394 µM
(KLAKKLA)	–	> 100 µM	> 100 µM	> 100 µM	N.L.	N.L.
